Results reported in article PMC3726001 (Bioorganic & medicinal chemistry letters, 2010).
In brackets after ≈: the same amount, converted by molar mass.

How the values were obtained:
dogs = details: cited from earlier work
Aqueous solubility = type: physicochemical
guinea pigs = details: cited from earlier work
[1] = tested on: (+)-methamphetamine (METH) self-administration; details: rats; effect not surmounted by METH; cited from earlier work
[2] = tested on: (+)-METH-induced dopaminergic toxicity; details: rats; repeated administration prior to (+)-METH self-administration; cited from earlier work
[3] = biological target: [3H]DTBZ-binding site on VMAT2 (Rattus norvegicus, UniProt Q01827); test: [3H]DTBZ binding to VMAT2
VMAT2 = VMAT2 (Rattus norvegicus, UniProt Q01827); test: Inhibition of [3H]DA uptake into synaptic vesicles; type: biochemical
VMAT2, sequence (Q01827 whole entry): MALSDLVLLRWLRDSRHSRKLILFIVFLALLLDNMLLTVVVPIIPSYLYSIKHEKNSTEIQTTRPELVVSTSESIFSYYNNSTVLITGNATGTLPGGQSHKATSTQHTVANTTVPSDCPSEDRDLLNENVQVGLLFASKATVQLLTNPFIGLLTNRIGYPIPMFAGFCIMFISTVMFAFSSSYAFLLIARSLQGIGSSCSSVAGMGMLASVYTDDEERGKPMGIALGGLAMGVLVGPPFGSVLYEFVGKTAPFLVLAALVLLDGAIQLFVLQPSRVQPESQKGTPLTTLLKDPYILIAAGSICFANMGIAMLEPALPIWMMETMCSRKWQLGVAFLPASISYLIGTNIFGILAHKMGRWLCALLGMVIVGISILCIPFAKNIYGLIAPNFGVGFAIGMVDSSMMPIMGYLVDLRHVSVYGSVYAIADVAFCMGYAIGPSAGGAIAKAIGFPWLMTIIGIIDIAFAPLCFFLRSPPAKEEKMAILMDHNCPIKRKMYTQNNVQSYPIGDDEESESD

[3H]DTBZ-binding site on VMAT2, sequence (Q01827 whole entry): as above

In the case of `CN1[C@@H](CCc2ccccc2)CCC[C@H]1CCc1ccccc1` [compound 1, N-methyl-cis-2,6-diphenethylpiperidine], the respiratory analeptic activity (dogs) is given as “marked respiratory analeptic activity”, the solubility (Aqueous solubility) is given as 300 µg/mL (≈ 976 µM) and the “pharmacological action in guinea pigs” value (guinea pigs) is given as “peripheral spasmolytic, ‘central stimulating’ action”.
In the case of `CN1[C@@H](CC(=O)c2ccccc2)CCC[C@H]1C[C@H](O)c1ccccc1` [compound 2, lobeline], the “effect on (+)-METH self-administration” value [1] is given as “inhibits” and the “effect on (+)-METH-induced dopaminergic toxicity” value [2] is given as “prevents”.
For `CN1[C@@H](CCc2cccnc2)CCC[C@H]1CCc1cccnc1` [compound 14], the “fold less potent than lobelane in binding to the [3H]DTBZ binding site” value ([3]; compared to lobelane) was “about 30 fold”.
For `CN1[C@@H](CCc2ccncc2)CCC[C@H]1CCc1ccncc1` [compound 21], the “binding to the [3H]DTBZ binding site compared to lobelane” value (“binding … compared to lobelane” below) ([3]; compared to lobelane) was “marginally lower in binding affinity”.
With `CN1[C@@H](CCc2ccc3ccccc3n2)CCC[C@H]1CCc1ccc2ccccc2n1.Cl` [compound 22] the “water solubility characteristics compared to lobelane” value (Aqueous solubility) was “improved water solubility”, the “affinity for the [3H]DTBZ binding site” value [3] was “submicromolar affinity” and the “binding … compared to lobelane” value ([3]; compared to lobelane) was “almost as avidly as lobelane”. The “potency in inhibiting [3H]DA uptake compared to lobelane” value (VMAT2) was “equipotent with lobelane”.
In the case of `CN1[C@@H](CCc2ccnc3ccccc23)CCC[C@H]1CCc1ccnc2ccccc12.Cl` [compound 23], the “water solubility characteristics compared to lobelane” value (Aqueous solubility) is reported as “improved water solubility”, the “binding … compared to lobelane” value ([3]; compared to lobelane) is reported as “almost as avidly as lobelane” and the “potency in inhibiting [3H]DA uptake compared to lobelane” value (VMAT2) is reported as “equipotent with lobelane”.
With `CN1[C@@H](CCc2c[nH]c3ccccc23)CCC[C@H]1CCc1c[nH]c2ccccc12` [compound 24] the “affinity for the [3H]DTBZ binding site” value [3] was “greatly diminished affinity”.
